What all share (type): cell-based
The target in data set [1] is T1, ATP-dependent translocase ABCB1 (Homo sapiens, UniProt P08183). Put plainly: Inhibition of p-glycoprotein expressing human MCF7/ADR cells assessed as cell killing after 48 hrs by SRB binding assay in presence of 200 uM actinomycin D. Particulars: nci/adr-res.
Data set [2] addresses T1, ATP-dependent translocase ABCB1. As to the kind of experiment: Inhibition of p-glycoprotein expressing human MCF7/ADR cells assessed as increase in vinblastine sensitivity to cell killing at 0.6 uM after 48 hrs by SRB assay. Particulars: nci/adr-res.
For data set [3], the system named is MCF7/VP. As to the kind of experiment: Inhibition of MRP expressing human MCF7/VP cells assessed as increase in vincristine-induced cytotoxicity at 5 to 10 uM after 48 hrs by SRB binding assay.
Data set [4] deals with NCI/ADR-RES. Put plainly: Displacement of [3H]azidopine from p-glycoprotein expressed in human MCF7/ADR cells assessed as photoaffinity labeling reduction at 0.5 uM. The arrangement: scale not given: the % may be the effect or the level left.
Data set [5] addresses T1, ATP-dependent translocase ABCB1. As to the kind of experiment: Inhibition of p-glycoprotein expressing human MCF7 cells assessed as [3H]vinblastine accumulation.
Data set [6] shares this target. As to the kind of experiment: Inhibition of p-glycoprotein expressing human MCF7/ADR cells assessed as cell killing after 48 hrs by SRB binding assay in presence of 4 uM cisplatin. Particulars: nci/adr-res.
Data set [7] has the same target. Put plainly: Inhibition of p-glycoprotein expressing human MCF7/ADR cells assessed as cell killing after 48 hrs by SRB binding assay in presence of 15M daunomycin. Particulars: nci/adr-res.
Data set [8] deals with MCF7/VP. Put plainly: Inhibition of MRP expressed in human MCF7/VP cells assessed as increase in doxorubicin-induced cytotoxicity.
In data set [9] the test system is MCF7/VP. Put plainly: Inhibition of MRP expressed in human MCF7/VP cells assessed as increase in cisplatin-induced cytotoxicity.
Data set [10] has as its system MCF7/VP. Put plainly: Inhibition of MRP expressed in human MCF7/VP cells assessed as increase in etoposide-induced cytotoxicity.
For data set [11], the target named is T1, ATP-dependent translocase ABCB1. As to the kind of experiment: Inhibition of p-glycoprotein expressing human MCF7/ADR cells assessed as [3H]vinblastine accumulation treated at 5 uM measured after 60 mins. The settings on record: nci/adr-res, 1 h.
Data set [12] has the same target. Put plainly: Inhibition of p-glycoprotein expressing human MCF7/ADR cells assessed as [3H]vinblastine accumulation treated at 20 uM measured after 60 mins. The settings on record: nci/adr-res, 1 h.
For data set [13], the system named is NCI/ADR-RES. Put plainly: Displacement of [3H]azidopine from p-glycoprotein expressed in human MCF7/ADR cells assessed as photoaffinity labeling reduction at 10 uM. The arrangement: scale not given: the % may be the effect or the level left.
Data set [14] concerns MCF7/VP. Put plainly: Inhibition of MRP expressed in human MCF7/VP cells assessed as increase in vincristine-induced cytotoxicity at 20 uM after 48 hrs by SRB binding assay.

Results on four compounds are retold here after ChEMBL document CHEMBL1158235, “Dendroamides, new cyclic hexapeptides from a blue-green alga. Multidrug-resistance reversing activity of dendroamide A” (J Nat Prod, 1996).

Active and inactive are the calls of the source. The calls are words filed in the database; no cut-off is given here.

T1 sequence (P08183 whole entry): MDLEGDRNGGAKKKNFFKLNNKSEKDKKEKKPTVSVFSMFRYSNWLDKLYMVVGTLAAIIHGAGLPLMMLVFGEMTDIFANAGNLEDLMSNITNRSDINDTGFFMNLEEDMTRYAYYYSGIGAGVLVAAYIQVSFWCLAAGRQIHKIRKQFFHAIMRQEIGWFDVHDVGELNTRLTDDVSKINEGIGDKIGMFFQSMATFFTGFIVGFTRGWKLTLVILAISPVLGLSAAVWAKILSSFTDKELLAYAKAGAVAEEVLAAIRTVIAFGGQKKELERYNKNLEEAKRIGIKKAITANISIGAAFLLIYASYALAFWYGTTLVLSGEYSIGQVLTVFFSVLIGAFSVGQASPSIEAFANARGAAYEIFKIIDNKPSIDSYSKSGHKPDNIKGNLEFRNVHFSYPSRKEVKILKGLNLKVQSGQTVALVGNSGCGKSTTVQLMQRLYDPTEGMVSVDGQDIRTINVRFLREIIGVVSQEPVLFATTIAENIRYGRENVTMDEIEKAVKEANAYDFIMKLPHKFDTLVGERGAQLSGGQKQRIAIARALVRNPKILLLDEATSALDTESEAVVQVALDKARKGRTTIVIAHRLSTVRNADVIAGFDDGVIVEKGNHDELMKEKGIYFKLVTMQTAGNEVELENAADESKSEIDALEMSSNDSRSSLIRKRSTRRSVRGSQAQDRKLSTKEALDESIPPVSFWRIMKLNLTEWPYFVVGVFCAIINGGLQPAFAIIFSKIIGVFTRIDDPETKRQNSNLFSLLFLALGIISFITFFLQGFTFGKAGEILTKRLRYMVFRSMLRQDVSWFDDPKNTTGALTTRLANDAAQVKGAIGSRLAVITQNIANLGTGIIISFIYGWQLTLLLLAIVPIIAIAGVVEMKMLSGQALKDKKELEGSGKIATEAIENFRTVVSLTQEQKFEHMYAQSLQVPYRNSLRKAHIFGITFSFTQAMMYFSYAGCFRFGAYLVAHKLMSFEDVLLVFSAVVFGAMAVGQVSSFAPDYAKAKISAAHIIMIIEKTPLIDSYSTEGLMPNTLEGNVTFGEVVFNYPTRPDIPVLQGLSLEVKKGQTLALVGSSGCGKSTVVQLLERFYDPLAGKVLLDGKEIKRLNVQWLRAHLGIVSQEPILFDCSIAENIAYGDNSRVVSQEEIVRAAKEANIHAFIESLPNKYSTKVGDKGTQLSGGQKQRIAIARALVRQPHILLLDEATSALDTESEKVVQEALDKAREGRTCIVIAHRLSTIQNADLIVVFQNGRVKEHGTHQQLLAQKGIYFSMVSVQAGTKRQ

For `Cc1oc2nc1C(=O)N[C@H](C(C)C)c1nc(cs1)C(=O)N[C@H](C)c1nc(cs1)C(=O)N[C@@H]2C` [DENDROAMIDE A], the Activity result in data set [1] was “Active”; in data set [2], “Active”; in the data set with NCI/ADR-RES [4], 50%; in data set [5], “Not Active”; in data set [6] it was “Not Active”; in data set [7] it was “Active”. Besides, the outcome with MCF7/VP [3], with MCF7/VP [8] and in the data set with MCF7/VP [10] was Active. For the same compound, the outcome in the data set on MCF7/VP [9] was inactive.
Consider `Cc1oc2nc1C(=O)N[C@H](C)c1nc(cs1)C(=O)N[C@H](CC[S+](C)[O-])c1nc(cs1)C(=O)N[C@@H]2C` (stereo partly specified) [DENDROAMIDE C], for which the Activity entry in [11], in data set [1], in data set [2], in data set [12], in data set [5] and in [6] was “Not Active” throughout. In addition, in data set [7], the Activity result is listed as “Not Active”. Further, the outcome with NCI/ADR-RES [4] and in the data set with NCI/ADR-RES [13] was inactive.
`CSCC[C@H]1NC(=O)c2csc(n2)[C@@H](C)NC(=O)c2nc(oc2C)[C@@H](C)NC(=O)c2csc1n2` [DENDROAMIDE B]: the Activity result in data set [11], in data set [1], in data set [2], in data set [12], in data set [5] and in [6] was “Not Active” each time. For the same compound, the Activity entry in data set [7] is reported as “Not Active”. Besides, the outcome in the data set on NCI/ADR-RES [4] and in the data set on NCI/ADR-RES [13] was inactive.
`COc1ccc(CCN(C)CCCC(C#N)(c2ccc(OC)c(OC)c2)C(C)C)cc1OC` (stereo unspecified) [VERAPAMIL]: the result with MCF7/VP [14] was Active. Besides, the Activity entry in data set [5] was “Not Active”; in the data set with NCI/ADR-RES [13] it was 50%.
